Source: ChEMBL document CHEMBL5465560, “Selectivity Literature for EUbOPEN Chemogenomic Library” (2024)
Each block holds one molecule with its values, some of them ahead of it.

Key:
[1] = target: T1, Phosphatidylinositol 4,5-bisphosphate 3-kinase catalytic subunit delta isoform (Homo sapiens) (UniProt O00329); assay: Selectivity interaction (ActivX KiNativ screen (ex vivo kinase selectivity in human PBMCs)) EUB0001619a PIK3CD; type: cell-based; conditions: PBMC, at 1 µM
T1 sequence (whole entry): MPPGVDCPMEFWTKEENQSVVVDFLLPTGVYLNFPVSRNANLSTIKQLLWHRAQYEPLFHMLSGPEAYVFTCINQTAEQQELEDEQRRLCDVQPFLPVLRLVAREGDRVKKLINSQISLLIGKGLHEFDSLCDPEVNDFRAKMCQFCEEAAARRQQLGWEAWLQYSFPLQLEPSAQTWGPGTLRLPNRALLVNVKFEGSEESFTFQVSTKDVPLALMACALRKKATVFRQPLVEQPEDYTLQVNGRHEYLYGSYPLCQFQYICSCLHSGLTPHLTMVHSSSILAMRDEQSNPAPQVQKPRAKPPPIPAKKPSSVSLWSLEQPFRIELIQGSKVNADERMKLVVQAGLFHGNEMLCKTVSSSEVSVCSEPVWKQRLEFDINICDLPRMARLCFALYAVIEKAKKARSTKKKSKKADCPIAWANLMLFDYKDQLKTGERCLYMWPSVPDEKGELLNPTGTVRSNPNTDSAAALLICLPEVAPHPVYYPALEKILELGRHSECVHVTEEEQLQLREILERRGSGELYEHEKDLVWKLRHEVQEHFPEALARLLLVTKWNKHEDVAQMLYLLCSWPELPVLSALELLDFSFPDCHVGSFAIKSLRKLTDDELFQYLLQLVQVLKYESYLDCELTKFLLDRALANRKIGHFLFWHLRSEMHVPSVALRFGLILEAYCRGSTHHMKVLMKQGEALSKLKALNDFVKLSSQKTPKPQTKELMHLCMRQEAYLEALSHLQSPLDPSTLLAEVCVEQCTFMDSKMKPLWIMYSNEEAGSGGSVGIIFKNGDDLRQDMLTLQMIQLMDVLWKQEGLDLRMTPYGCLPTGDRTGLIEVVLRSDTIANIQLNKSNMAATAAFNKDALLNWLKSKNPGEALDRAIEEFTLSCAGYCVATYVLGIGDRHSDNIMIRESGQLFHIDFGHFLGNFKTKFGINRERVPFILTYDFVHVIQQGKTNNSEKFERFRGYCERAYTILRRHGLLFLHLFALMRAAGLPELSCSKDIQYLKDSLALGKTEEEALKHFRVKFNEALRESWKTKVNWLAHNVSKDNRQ

[2] = target: Serine/threonine-protein kinase 33 (Homo sapiens) (UniProt Q9BYT3); assay: Selectivity interaction (KinomeScan (DiscoverX)) EUB0000045b STK33
[3] = target: Fibroblast growth factor receptor 1 (Homo sapiens, UniProt P11362); assay: Selectivity interaction (KinomeScan (DiscoverX)) EUB0000595a FGFR1; conditions: at 10 µM
[4] = target: Receptor-interacting serine/threonine-protein kinase 2 (Homo sapiens, UniProt O43353); assay: Selectivity interaction (KinomeScan (DiscoverX)) EUB0000595a RIPK2; conditions: at 10 µM
[5] = target: MAP kinase-interacting serine/threonine-protein kinase 2 (Homo sapiens, UniProt Q9HBH9); assay: Selectivity interaction (KinomeScan (DiscoverX)) EUB0000229b MKNK2; conditions: at 10 µM
[6] = target: Ribosomal protein S6 kinase alpha-2 (Homo sapiens) (UniProt Q15349); assay: Selectivity interaction (Kinome Scan (DiscoverX)) EUB0000229b RPS6KA2; conditions: at 10 µM
[7] = target: T2, Tyrosine-protein kinase Tec (Homo sapiens) (UniProt P42680); assay: Selectivity interaction (LanthaScreen Eu Kinase Binding Assay) EUB0001632a TEC; conditions: at 10 µM
T2 sequence (whole entry): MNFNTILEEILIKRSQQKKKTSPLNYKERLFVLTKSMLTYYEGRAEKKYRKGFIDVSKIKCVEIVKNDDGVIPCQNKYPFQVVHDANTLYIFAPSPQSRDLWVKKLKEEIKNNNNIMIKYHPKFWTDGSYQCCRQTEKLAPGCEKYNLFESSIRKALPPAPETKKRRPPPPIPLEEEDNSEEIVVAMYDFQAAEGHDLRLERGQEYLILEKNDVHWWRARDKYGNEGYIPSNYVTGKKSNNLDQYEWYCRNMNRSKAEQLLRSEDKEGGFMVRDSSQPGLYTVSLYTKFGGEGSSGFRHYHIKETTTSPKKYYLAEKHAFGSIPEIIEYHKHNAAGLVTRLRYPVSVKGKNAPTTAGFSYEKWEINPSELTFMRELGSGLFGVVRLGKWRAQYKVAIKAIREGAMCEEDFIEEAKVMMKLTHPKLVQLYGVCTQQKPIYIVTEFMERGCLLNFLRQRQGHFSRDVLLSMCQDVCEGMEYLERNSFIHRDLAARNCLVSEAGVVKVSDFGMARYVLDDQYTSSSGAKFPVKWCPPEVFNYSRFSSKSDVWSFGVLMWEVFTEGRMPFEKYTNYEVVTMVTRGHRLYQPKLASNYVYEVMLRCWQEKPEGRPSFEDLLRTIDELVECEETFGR

[8] = target: T3, cGMP-dependent protein kinase 2 (Homo sapiens) (UniProt Q13237); assay: Selectivity interaction (KinomeScan (DiscoverX)) EUB0000695a PRKG2; conditions: at 100 nM
T3 sequence (whole entry): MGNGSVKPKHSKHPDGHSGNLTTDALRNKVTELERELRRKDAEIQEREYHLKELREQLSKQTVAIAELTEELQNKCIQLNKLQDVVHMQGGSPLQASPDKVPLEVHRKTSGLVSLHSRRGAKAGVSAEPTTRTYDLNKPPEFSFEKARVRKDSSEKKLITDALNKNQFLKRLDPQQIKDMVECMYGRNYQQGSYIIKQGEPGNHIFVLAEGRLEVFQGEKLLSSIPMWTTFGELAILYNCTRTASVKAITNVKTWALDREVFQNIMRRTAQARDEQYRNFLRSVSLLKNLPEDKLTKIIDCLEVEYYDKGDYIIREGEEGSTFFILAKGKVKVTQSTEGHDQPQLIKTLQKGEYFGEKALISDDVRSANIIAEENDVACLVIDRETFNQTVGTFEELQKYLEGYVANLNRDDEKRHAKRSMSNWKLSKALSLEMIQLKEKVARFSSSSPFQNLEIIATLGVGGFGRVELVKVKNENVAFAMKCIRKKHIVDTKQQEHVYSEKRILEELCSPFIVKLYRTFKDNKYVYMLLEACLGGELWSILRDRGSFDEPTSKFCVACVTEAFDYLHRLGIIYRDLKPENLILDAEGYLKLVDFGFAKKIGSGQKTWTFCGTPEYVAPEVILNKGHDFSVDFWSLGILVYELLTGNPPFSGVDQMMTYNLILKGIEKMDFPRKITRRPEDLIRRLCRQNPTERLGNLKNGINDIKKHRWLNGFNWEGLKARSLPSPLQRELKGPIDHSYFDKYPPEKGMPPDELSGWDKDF

Chain of Serine/threonine-protein kinase 33 (Homo sapiens) (Q9BYT3 whole entry, looked up): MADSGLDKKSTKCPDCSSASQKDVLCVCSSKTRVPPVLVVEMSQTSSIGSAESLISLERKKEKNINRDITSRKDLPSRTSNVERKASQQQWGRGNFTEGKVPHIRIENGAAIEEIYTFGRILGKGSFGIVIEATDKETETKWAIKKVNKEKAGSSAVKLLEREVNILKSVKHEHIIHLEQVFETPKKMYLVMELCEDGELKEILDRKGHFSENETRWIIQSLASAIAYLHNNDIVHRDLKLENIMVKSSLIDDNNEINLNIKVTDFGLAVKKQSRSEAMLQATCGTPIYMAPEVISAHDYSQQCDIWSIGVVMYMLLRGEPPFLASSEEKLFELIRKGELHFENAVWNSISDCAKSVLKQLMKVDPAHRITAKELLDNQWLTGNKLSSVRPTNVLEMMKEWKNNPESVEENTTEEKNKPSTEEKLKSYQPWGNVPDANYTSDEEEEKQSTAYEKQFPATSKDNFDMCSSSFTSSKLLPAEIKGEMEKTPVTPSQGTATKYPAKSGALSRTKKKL
Chain of Fibroblast growth factor receptor 1 (P11362 22-822 limits assumed): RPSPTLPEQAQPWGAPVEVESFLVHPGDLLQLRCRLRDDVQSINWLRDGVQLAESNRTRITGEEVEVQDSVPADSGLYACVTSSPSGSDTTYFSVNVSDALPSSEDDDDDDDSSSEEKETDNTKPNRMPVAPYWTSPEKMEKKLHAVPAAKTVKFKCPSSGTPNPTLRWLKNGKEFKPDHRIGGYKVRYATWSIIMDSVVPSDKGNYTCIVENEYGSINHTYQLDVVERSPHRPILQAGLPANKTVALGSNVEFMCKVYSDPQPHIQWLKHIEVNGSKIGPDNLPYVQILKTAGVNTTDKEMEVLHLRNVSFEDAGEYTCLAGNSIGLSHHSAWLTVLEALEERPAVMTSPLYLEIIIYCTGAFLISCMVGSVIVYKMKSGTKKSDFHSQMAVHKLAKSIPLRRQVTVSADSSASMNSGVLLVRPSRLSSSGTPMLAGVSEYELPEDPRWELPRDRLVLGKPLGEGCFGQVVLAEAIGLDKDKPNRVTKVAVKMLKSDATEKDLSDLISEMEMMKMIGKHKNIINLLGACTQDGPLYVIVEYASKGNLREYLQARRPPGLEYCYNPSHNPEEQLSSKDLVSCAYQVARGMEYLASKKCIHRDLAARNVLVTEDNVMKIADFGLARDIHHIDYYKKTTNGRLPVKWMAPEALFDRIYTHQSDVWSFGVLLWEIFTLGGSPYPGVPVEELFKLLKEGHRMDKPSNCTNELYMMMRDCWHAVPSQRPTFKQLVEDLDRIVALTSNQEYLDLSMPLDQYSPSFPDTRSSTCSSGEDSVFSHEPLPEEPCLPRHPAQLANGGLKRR
Chain of MAP kinase-interacting serine/threonine-protein kinase 2 (Q9HBH9 whole entry, looked up): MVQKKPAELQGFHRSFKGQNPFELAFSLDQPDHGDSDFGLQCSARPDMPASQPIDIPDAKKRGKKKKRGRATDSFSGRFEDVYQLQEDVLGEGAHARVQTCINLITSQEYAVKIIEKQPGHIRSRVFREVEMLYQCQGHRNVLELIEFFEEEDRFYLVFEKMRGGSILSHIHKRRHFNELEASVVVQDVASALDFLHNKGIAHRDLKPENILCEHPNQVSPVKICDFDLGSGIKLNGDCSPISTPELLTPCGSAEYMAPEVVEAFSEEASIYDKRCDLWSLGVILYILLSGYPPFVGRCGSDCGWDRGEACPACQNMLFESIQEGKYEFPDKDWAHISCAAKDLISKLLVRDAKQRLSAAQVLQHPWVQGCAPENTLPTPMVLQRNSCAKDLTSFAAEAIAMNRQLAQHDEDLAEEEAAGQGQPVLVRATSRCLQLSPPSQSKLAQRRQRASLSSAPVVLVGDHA
Chain of Receptor-interacting serine/threonine-protein kinase 2 (O43353 whole entry): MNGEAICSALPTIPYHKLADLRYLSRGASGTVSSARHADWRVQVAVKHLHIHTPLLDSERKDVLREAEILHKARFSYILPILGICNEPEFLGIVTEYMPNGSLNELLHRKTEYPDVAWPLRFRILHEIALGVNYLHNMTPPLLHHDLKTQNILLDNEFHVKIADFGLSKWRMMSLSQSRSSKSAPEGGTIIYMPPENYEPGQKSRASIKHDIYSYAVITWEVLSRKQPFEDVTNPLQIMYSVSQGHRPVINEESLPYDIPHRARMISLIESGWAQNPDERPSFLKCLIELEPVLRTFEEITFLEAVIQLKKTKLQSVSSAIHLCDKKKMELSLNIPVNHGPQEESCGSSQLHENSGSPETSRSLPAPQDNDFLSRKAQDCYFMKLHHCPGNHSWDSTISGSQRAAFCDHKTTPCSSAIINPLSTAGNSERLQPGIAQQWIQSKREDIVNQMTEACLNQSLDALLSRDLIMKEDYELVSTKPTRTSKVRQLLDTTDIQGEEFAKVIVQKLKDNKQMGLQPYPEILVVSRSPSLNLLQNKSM
Chain of Ribosomal protein S6 kinase alpha-2 (Homo sapiens) (Q15349 whole entry): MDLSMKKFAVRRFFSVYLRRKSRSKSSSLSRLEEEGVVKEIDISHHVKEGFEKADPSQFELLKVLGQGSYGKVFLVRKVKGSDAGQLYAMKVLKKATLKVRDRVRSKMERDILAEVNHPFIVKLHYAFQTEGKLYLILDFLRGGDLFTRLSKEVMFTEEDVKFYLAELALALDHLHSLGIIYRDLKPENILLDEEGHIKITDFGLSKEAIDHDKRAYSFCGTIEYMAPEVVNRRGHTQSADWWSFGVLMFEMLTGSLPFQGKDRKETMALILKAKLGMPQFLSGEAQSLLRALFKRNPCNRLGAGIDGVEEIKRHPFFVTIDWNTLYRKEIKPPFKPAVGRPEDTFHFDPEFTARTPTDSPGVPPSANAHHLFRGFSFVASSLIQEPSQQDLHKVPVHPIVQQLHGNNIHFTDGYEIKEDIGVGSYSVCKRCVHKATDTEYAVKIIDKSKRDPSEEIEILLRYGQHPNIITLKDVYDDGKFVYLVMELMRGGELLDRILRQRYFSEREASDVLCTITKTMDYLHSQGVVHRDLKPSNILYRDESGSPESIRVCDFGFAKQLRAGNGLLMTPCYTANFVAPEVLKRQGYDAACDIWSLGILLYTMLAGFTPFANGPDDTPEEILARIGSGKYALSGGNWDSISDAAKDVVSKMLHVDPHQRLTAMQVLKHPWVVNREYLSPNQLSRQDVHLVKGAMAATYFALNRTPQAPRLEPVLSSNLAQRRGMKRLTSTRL

SMILES: N#Cc1cccc(-c2c[nH]c3ncnc(N4CCOCC4)c23)c1
% of inhibition [1]: -12%

SMILES: C=CC(=O)Nc1cc(-n2c(=O)ccc3cnc4ccc(-c5ccc(NS(C)(=O)=O)cc5)cc4c32)ccc1C
% of control ([2]; at 1 µM): 100%
% of control ([2]; at 10 µM): 95%

SMILES: COCC(=O)NC/C=C/c1ccc2ncnc(Nc3ccc(Oc4ccc(C)nc4)c(C)c3)c2c1 [CP-724714]
% of control [3]: 100%
% of control [4]: 26%

SMILES: COc1cc(N(C)c2ccnc3ccc(C(F)(F)F)cc23)cc(OC)c1OC
% binding [5]: 90%
% binding [6]: 74%

% of inhibition [7]: -15.6%
SMILES: Cn1cc(-n2cnc3c(NCc4nc5cc(Cl)c(Cl)cc5[nH]4)nc(N4CCOCC4)nc32)cn1

SMILES: Cc1cc(F)c(C(=O)Nc2cccc(-c3nncn3C(C)C)n2)cc1-n1cnc(C2CC2)c1
% of control [8]: 88%
